The text below walks through data of US20230137491A1, “PEPTIDES AND USES THEREOF” (SINTICA BIOTECH SOCIETÀ A RESPONSABILITÀ LIMITATA …, priority 2020, published 2023).

Non-standard residues stand in square brackets, D forms with d. methoxy‑PEG 20 kDa = linear 20 kDa methoxy-PEG conjugated through D-Cys sulfur

Assay [1] deals with primary and metastatic melanoma cell lines. Description: Trypan blue viable cell counting in relation to CD271 levels by flow cytometry. The settings on record: five primary and metastatic melanoma cell lines. The class given is cell-based, human. On the procedure:
FIG. 4. The peptide-induced cell death correlates with CD271 expression levels in melanoma cell lines. Five primary and metastatic melanoma cell lines were cultured and viability measured by Trypan blue staining solution. Flow cytometry was used to evaluate the expression level of CD271 receptor. Because CD271 mediates apoptosis in many cell systems, we analysed the effect of XYZ in melanoma cell lines in relation to the levels of the receptor. After treatment, melanoma cell lines were harvested and incubated with Trypan Blue staining solution or incubated with CD271 antibody for flow cytometer analysis.
On the technique in general: In flow cytometry, cells or beads pass a laser one at a time.

Assay [2] has as its system WM266-4 melanoma cell line. Description: Cell death analysis by flow cytometry (propidium iodide, sub-G1). As to conditions: WM266-4, 24 h and 48 h, versus diluent. Type of assay: cell-based, human. On the procedure: (§1) FIG. 5. […] WM266-4 melanoma cell line was cultured and the rate of apoptosis measured after treatment with the peptide (XYZ) as compared to diluent at different time points by flow cytometry (A) counting % of cells in sub-G1 with propidium iodide staining or (B) counting % of Annexin positive cells staining. Student's t-test was used for comparison of the means
WM266-4 cell line was treated with the peptide (XYZ) or diluent at different time points. After 24 and 48 h, cells were trypsinised and resuspended in hypotonic fluorochrome solution: 50 μg/ml propidium iodide containing 0.1% sodium citrate and 0.5% Triton X-100 (Sigma Aldrich, Milano, Italy). After 15 min, cells were analyzed using an Epics XL flow cytometer (Coulter Electronics Inc., Hialeah, Fla., USA). Apoptosis was detected by evaluating the reduced fluorescence of the DNA-binding dye PI in the apoptotic nuclei.
(§2) In particular, XYZ triggers melanoma apoptosis, a most well-known type of programmed cell death in culture. […] In details, melanoma cell lines, gently were trypsinised and washed once with serum-containing media before incubation with annexin V-FITC or with propidium iodide. 24 h and 48 h later, FITC signal detector or sub G0/G1 peak for annexin or PI staining respectively, were observed by flow cytometry.

Another assay has as its target T1, CD271 (Homo sapiens, UniProt P08138).
T1 construct: total protein lysates of WM266-4 and Lu1205 melanoma cell lines were immunoprecipitated with the peptide conjugated to sepharose beads; endogenous in cells; host or cells: WM266-4 and 1205Lu melanoma cell lines (ATCC)
T1 sequence (P08138 29-427): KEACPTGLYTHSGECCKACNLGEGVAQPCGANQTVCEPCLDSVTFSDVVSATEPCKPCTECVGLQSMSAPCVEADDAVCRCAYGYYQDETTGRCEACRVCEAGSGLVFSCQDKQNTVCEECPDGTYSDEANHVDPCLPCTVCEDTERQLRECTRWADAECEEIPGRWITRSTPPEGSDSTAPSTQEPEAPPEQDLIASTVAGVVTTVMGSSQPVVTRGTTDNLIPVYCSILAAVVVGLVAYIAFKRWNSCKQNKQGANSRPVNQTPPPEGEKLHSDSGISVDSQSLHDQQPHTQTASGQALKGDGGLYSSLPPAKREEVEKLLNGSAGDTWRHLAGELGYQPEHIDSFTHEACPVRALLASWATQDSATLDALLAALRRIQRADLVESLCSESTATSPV
Put plainly: Immunoprecipitation of melanoma cell lysates with the peptide, blotted against CD271. Type of assay: binding. As to conditions: protein extracts of WM266-4 and 1205Lu melanoma cell lines. On the procedure: FIG. 1. […] Protein extracts from two melanoma cell lines were immunoprecipitated with the Pegylated form of the peptide (XYZ) and blotted against CD271. The sepharose beads-protein lysates (without CD271) is used as negative control, while no-immunoprecipitated protein lysate from WM266-4 is used as positive control.
1205Lu and WM266-4 melanoma cell lines were treated with or without XYZ. 24 h later cells were harvested with RIPA buffer (10 mM Tris, pH 8.0; 150 mM NaCl; 1% Nonidet P-40, 0.5% deoxycholate; 0.1% SDS) containing protease inhibitors. Nuclei were removed by centrifugation (11,000 rpm for 3 min). Monoclonal antibody anti-p75NTR (Upstate) was bound to sepharose beads lh at 4° C. under rotation. Then, pre-cleared lysates were conjugated to sepharose beads-antibody complex or to sepharose beads alone as negative control, overnight at 4° C. under rotation. Immunocomplexes were washed with Port Buffer (10 mM Tris-HCl, pH 8.5; 150 mM NaCl; 0.1% Renex 30; 0.01% BSA; 2.5% NaN3) six times and with PT Buffer (10 mM Tris-HCl, pH 8.5; 150 mM NaCl; 0.5% Tween 20; 2.5% NaN3) three times. Samples were eluted with 1× Laemnli sample buffer for […] at 90° C. and Western Blotting for p75NTR was performed.
Immunocomplexes were washed with Port Buffer and with PT Buffer, then eluted with Laemnli sample buffer for 5′ at 90° C. […]

Assay [3] relates to WM266-4 melanoma cell line. Put plainly: Annexin V staining by flow cytometry. The class given is cell-based, human. The settings on record: WM266-4, 24 h and 48 h, versus diluent. The protocol:
as §1
WM266-4 cell line was treated with the peptide (XYZ) or diluent at different time points. After 24 and 48 h, cells were trypsinised, collected by centrifugation and resuspended in 500 μL of binding buffer containing annexin V-FITC and propidium iodide (PI). After incubation at room temperature for 5 min in the dark, annexin V-FITC binding was analyzed by flow cytometry using FITC signal detector and PI staining by the phycoerythrin emission signal detector.
as §2

Consider “Ac-DMet-DLeu-Gly-DIle-DIle-DAla-Gly-DLys-DAsn-DSer-Gly-DCys-NH2 with a linear 20 kDa methoxy-PEG polymer conjugated to the D-Cys residue through the sulfur atom of the latter (Ac-[dM][dL]G[dI][dI][dA]G[dK][dN][dS]G[dC](methoxy‑PEG 20 kDa)-NH2) [XYZ]”, for which the “cell death versus CD271 expression level (Trypan blue viable cell counting, flow cytometry)” value in assay [1] was “more efficacious in cell lines expressing higher levels of CD271”. The “rate of apoptosis (propidium iodide, subG1 analysis)” value in assay [2] is on record as “significantly higher rate of apoptosis than diluent alone”. In addition, the “binding to CD271 (immunoprecipitation, blot against CD271)” value with CD271 is recorded as “immunoprecipitate with CD271”. For the same substance, the “rate of apoptosis (Annexin staining)” value in assay [3] is recorded as “significantly higher rate of apoptosis than diluent alone”.
